The values below come from patent publication US20220144853A1, “IMIDAZOLINE DERIVATIVES AS CXCR4 MODULATORS” (Université de Paris, priority 2019, published 2022).

Experiment [1] deals with T1, human CXCR4 (hCXCR4) receptor (Homo sapiens, UniProt P61073).
T1 construct: expressed in transfected cells; host or cells: HEK-293 T cells, transient co-transfection with polyethylenimine
As to the kind of experiment: BRET assay of antagonist activity on the CXCR4-CXCL12 signaling pathway in transfected HEK-293 T cells. Type of experiment: cell-based. The note with it: Gαi1, Gαi2, Gαi3, GαoB or Gαz, EC80 CXCL12, FIG. 6. The method, then:
Examples of the present invention were tested for their antagonist activity on human CXCR4 (hCXCR4) receptor transiently over-expressed in HEK-293 T cells. Compounds exert antagonist activity if they decrease the action of CXCL12 on the receptor.
HEK-293 T cells are maintained in Dulbecco's Modified Eagle's Medium supplemented with 10% Foetal Calf Serum, 1% Penicillin/Streptomycin at 37° C./5% CO2. […] After transfection, cells are cultured for 48 h at 37° C./5% CO2.
On the day of the assay, cells are detached using trypsin 0.05%, resuspended in assay buffer (1.8 mM CaCl2, 1 mM MgCl2, 2.7 mM KCl, 137 mM NaCl, 0.4 mM NaH2PO4, 5.5 mM D-Glucose, 11.9 mM NaHCO3, 25 mM Hepes) and seeded in 384 well plate at a density of 20,000 cells per well.
Cells are first incubated for 10 minutes with the compound alone. Then, cells are stimulated by an EC80 CXCL12 concentration for additional 10 minutes and luminescence is recorded. […] Antagonist activity is evaluated in comparison to basal signals evoked by EC80 CXCL12 alone.
For IC50 determination, a dose-response test is performed using 20 concentrations (ranging over 6 logs) of each compound. Dose-response curves are fitted using the sigmoidal dose-response (variable slope) analysis in GraphPad Prism software (GraphPad Software) and IC50 of antagonist activity is calculated. […]

For a further experiment, the system named is TNF-α. As to the kind of experiment: Cytokine production by R848-activated PBMCs, LEGENDplex Human Inflammation panel 1: TNF-α. Type of experiment: cell-based. Particulars: Homo sapiens, PBMC, PBMCs from 2 healthy donors, R848 overnight. The method, then: (§1) 2) The PBMCs used herein were prepared as described in part A “immune cells preparation”, section 2) above. PBMCs were seeded at 4.10^6/mL. […] Cells were then stimulated with the TLR7/8 agonist resiquimod—R848 (Sigma-Aldrich, MO, USA) at 5 μg/mL.
(§2) Cytokine expression levels were assessed using LEGENDplex Human inflammation panel 1 Kit (BioLegend, California, USA), which is a bead-based multiplex assay, using fluorescence-encoded beads. […] First, supernatants of R848-stimulated PBMCs were harvested after 24 h of stimulation and frozen at −20° C. for storage. Supernatants were dispensed into a 96-well V-bottom plate. Protocol pursued as per manufacturer recommendations (Manual for BioLegend LEGENDplex, Multi-Analyte Flow Assay Kit, Human Inflammation Panel 1, version 750000393_R01).

For another experiment, the system named is IL-10. As to the kind of experiment: Cytokine production by R848-activated PBMCs, LEGENDplex Human Inflammation panel 1: IL-10. The class given is cell-based. The note with it: Homo sapiens, PBMC, PBMCs from 2 healthy donors, R848 overnight. The method, then: as §1, §2
In experiment [2] the test system is IFN production by activated PBMCs. As to the kind of experiment: IFN production by R848-activated PBMCs from healthy donors, twINNE reporter cell line. The note with it: Homo sapiens, PBMC, means of two results over 2 healthy donors, R848 5 μg/mL, IT1t: mean over all experiments, read-out: IC50 of anti-inflammatory activity (IFN production). The class given is cell-based, human. In short, it runs like this: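 Human PBMCs (4.10^6/mL, RPMI/10% FBS, 37° C) stimulated with R848 at 5 μg/mL; supernatants collected after 24 h. Functional IFN measured on twINNE cells (ISRE-driven luciferase reporter) after 24 h culture by bioluminescence; IC50 from variable-slope dose-response fits.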

Experiment [3] deals with IFN production by activated immune cells (PBMC). The experiment in a line: IFN production by R848-activated PBMC from healthy donors, STING-37 reporter cell line. Type of experiment: cell-based, human. The note with it: different concentrations, R848, STING-37 reporter, FIG. 1. The method, then: 1) The blood from healthy donors was obtained from two sources. Either from “Etablissement Français du Sang” (convention #07/CABANEL/106), Paris, France or from the Apheresis and Blood Donation Unit at the Institute of Transfusion Medicine and Immunogenetics (IKT), Ulm, Germany after being approved by the Institutional Review Board at Ulm University.
In vitro experiments were performed using human peripheral blood mononuclear cells (PBMCs) isolated by density centrifugation from peripheral blood leukocyte separation medium (Cambrex, Gaithersburg, Md.).
PBMCs were cultured in RPMI 1640 (Invitrogen, Gaithersburg, Md.) (R10) containing 10% heat-inactivated fetal bovine serum, 100 U/mL Penicilium and 100 μg/mL Streptomycin (1% Pen-Strep) and 1 mM glutamine (Hyclone, Logan, Utah).
1) The PBMCs used herein were prepared as described in part A “immune cells preparation”, section 1) above. PBMCs were seeded at 2.10^6/mL. […]
1) To quantify the secretion of functional IFN, a biological assay based on a stable cell line where luciferase reporter gene is controlled by five Interferon-Stimulated Response Elements (STING37 cell line) was used. […] After 24 h of culture, luciferase activity was determined by adding 50 μL of Bright-Glo reagents (Promega) to culture wells and measuring bioluminescence with a luminometer.

The test system of a further experiment is IFN-γ. As to the kind of experiment: Cytokine production by R848-activated PBMCs, LEGENDplex Human Inflammation panel 1: IFN-γ. The class given is cell-based. Particulars: Homo sapiens, PBMC, PBMCs from 2 healthy donors, R848 overnight. The method, then:
as §1, §2

The next experiment relates to IL-18. The experiment in a line: Cytokine production by R848-activated PBMCs, LEGENDplex Human Inflammation panel 1: IL-18. The class given is cell-based. Particulars: Homo sapiens, PBMC, PBMCs from 2 healthy donors, R848 overnight. The method, then:
as §1, §2

Structures can show the parent of a compound that is named as a salt.

What is called IC50 is the concentration that gives 50% inhibition.

T1 sequence (P61073 whole entry): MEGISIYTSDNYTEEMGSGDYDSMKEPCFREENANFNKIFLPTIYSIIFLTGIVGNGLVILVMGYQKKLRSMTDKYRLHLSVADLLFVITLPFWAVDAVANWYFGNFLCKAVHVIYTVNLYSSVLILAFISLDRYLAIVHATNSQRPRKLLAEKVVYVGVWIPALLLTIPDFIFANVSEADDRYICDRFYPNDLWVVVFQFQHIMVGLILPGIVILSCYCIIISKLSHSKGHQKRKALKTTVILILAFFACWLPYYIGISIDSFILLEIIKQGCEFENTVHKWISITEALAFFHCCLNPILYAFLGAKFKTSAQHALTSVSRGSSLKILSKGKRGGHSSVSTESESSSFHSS

In the case of `CC1(C)CN2C(CSC3=NCC(C)(C)N3)=CSC2=N1` [Example 2, 3-(((5,5-dimethyl-4,5-dihydro-1H-imidazol-2-yl)thio)methyl)-6,6-dimethyl-5,6-dihydroimidazo[2,1-b]thiazole dihydrochloride], in experiment [1], the “antagonist activity: recruitment of G proteins induced by the hCXCR4-CXCL12 interaction” value was “significantly lower than IT1t”. The IC50 is 46 µM in the experiment with TNF-α; 9.1 µM in the experiment on IL-10; 10 to 31 µM in experiment [2]; 26 µM in the experiment on IFN-γ; 13 µM in the experiment with IL-18. Besides, the “reduction of IFN production by activated PBMCs” value in experiment [3] amounted to 100%.
